Measured values: patent EP0908457B1, “3-(1,2-benzisothiazol- and isoxazol-5-Y1)-2,4(1H,3H)-pyrimidinedione or thione and 3-(1,2-benzisothiazol- and isoxazol-5-y1)-4(3H)-pyrimidinone or thione herbicidal agents” (BASF AKTIENGESELLSCHAFT, priority 1997, dated 1999)

Legend:
[1] = tested on: Echinochloa oryzoides (Ard.) Fritsch.; experiment: Preemergence weed control under flooded paddy conditions, ECHORC (Watergrass (Calif.)); format: in vivo; conditions: flooded paddy; on herbicidal effect rating, ECHORC: meaning of each grade not given here
Cyperus iria = experiment: Preemergence weed control under flooded paddy conditions, CYPIR (Rice Flatsedge); format: in vivo; conditions: flooded paddy; on herbicidal effect rating, CYPIR: meaning of each grade not given here
[2] = tested on: Cyperus serotinus, Rottb.; experiment: Preemergence weed control under flooded paddy conditions, CYPSE (Flatsedge); format: in vivo; on herbicidal effect rating, CYPSE: meaning of each grade not given here
[3] = tested on: Monochoria vaginalis, Presl.; experiment: Preemergence weed control under flooded paddy conditions, MOOVA (Monochoria); format: in vivo; conditions: flooded paddy; on herbicidal effect rating, MOOVA: meaning of each grade not given here
Sagittaria pygmaea, L. = experiment: Preemergence weed control under flooded paddy conditions, SAGPY (Arrowhead (Pygmaea)); format: in vivo; conditions: flooded paddy; on herbicidal effect rating, SAGPY: meaning of each grade not given here
[4] = tested on: Oryza sativa, (L.) Tebonnet; experiment: Rice tolerance to post-transplant applications under flooded paddy conditions (Example 187), ORYSAT (Rice, Tebonnet); on herbicidal effect rating ORYSAT: meaning of each grade not given here
[5] = Rate 0.0320 kg/ha, preemergence, rated three to four weeks after treatment
[6] = Rate 0.0620 kg/ha, preemergence, rated three to four weeks after treatment
[7] = Rate 0.1250 kg/ha, preemergence, rated three to four weeks after treatment
[8] = Rate 0.2500 kg/ha, preemergence, rated three to four weeks after treatment
[9] = Rate 0.5000 kg/ha, preemergence, rated three to four weeks after treatment
[10] = Rate 0.0320 kg/ha, rated three to four weeks after treatment
[11] = Rate 0.0620 kg/ha, rated three to four weeks after treatment
[12] = Rate 0.1250 kg/ha, rated three to four weeks after treatment
[13] = Rate 0.2500 kg/ha, rated three to four weeks after treatment
[14] = Rate 0.5000 kg/ha, rated three to four weeks after treatment
[15] = Rate 0.2500 kg/ha, preemergence weeds, rated three to four weeks after treatment
[16] = Rate 0.0320 kg/ha, preemergence, rated 3-4 weeks after treatment
[17] = Rate 0.0620 kg/ha, preemergence, rated 3-4 weeks after treatment
[18] = Rate 0.1250 kg/ha, preemergence, rated 3-4 weeks after treatment
[19] = Rate 0.2500 kg/ha, preemergence, rated 3-4 weeks after treatment
[20] = Rate 0.5000 kg/ha, preemergence, rated 3-4 weeks after treatment

COC(=O)COc1c(-c2nsc3ccc(-n4c(=O)cc(C(F)(F)F)n(C)c4=O)cc23)ccc(C)c1C [Example 274, Acetic acid, {{6-{5-[3,6-dihydro-3-methyl-2,6-dioxo-4-(trifluoromethyl)-1(2H)-pyrimidinyl]-1,2-benzisothiazol-3-yl}-2,3-xylyl}oxy}-, methyl ester]
7.0: CYPIR herbicidal effect rating (Cyperus iria; [5]) | ORYSAT herbicidal effect rating [4, 14]
9.0: ECHORC herbicidal effect rating [1, 8] | ECHORC herbicidal effect rating [1, 9] | CYPIR herbicidal effect rating (Cyperus iria; [7]) | CYPIR herbicidal effect rating (Cyperus iria; [8]) | CYPSE herbicidal effect rating [2, 8] | CYPSE herbicidal effect rating [2, 9] | MOOVA herbicidal effect rating [3, 5] | MOOVA herbicidal effect rating [3, 6] | MOOVA herbicidal effect rating [3, 7] | MOOVA herbicidal effect rating [3, 8] | MOOVA herbicidal effect rating [3, 9] | SAGPY herbicidal effect rating (Sagittaria pygmaea, L.; [8])
2.0: CYPIR herbicidal effect rating (Cyperus iria; [9]) | CYPSE herbicidal effect rating [2, 6] | ORYSAT herbicidal effect rating [4, 10]
4.0: SAGPY herbicidal effect rating (Sagittaria pygmaea, L.; [7]) | SAGPY herbicidal effect rating (Sagittaria pygmaea, L.; [9]) | ORYSAT herbicidal effect rating [4, 11] | ORYSAT herbicidal effect rating [4, 12]
8.0: CYPIR herbicidal effect rating (Cyperus iria; [6]) | CYPSE herbicidal effect rating [2, 7] | ORYSAT herbicidal effect rating [4, 13]
3.3: ECHORC herbicidal effect rating [1, 5]
5.9: ECHORC herbicidal effect rating [1, 7]
4.1: ECHORC herbicidal effect rating [1, 6]
0.0: CYPSE herbicidal effect rating [2, 5] | SAGPY herbicidal effect rating (Sagittaria pygmaea, L.; [5]) | SAGPY herbicidal effect rating (Sagittaria pygmaea, L.; [6])

COC(=O)CS(=O)(=O)Cc1nsc2ccc(-n3c(=O)cc(C(F)(F)F)n(C)c3=O)cc12 [Example 272, Acetic acid, {{{5-[3,6-dihydro-3-methyl-2,6-dioxo-4-(trifluoromethyl)-1(2H)-pyrimidinyl]-1,2-benzisothiazol-3-yl}methyl}sulfonyl}-, methyl ester]
0.0: ECHORC herbicidal effect rating [1, 9] | CYPIR herbicidal effect rating (Cyperus iria; [9]) | CYPSE herbicidal effect rating [2, 9] | MOOVA herbicidal effect rating [3, 9] | SAGPY herbicidal effect rating (Sagittaria pygmaea, L.; [9]) | ORYSAT herbicidal effect rating [4, 14]

Cn1c(C(F)(F)F)cc(=O)n(-c2ccc3snc(C=C(Br)Br)c3c2)c1=O [Example 284, 2,4(1H,3H)-Pyrimidinedione, 3-[3-(2,2-dibromovinyl)-1,2-benzisothiazol-5-yl]-1-methyl-6-(trifluoromethyl)-]
0.0: ECHORC herbicidal effect rating [1, 5] | ECHORC herbicidal effect rating [1, 6] | ECHORC herbicidal effect rating [1, 7] | ECHORC herbicidal effect rating [1, 8] | CYPSE herbicidal effect rating [2, 5] | CYPSE herbicidal effect rating [2, 6] | SAGPY herbicidal effect rating (Sagittaria pygmaea, L.; [5]) | SAGPY herbicidal effect rating (Sagittaria pygmaea, L.; [6]) | SAGPY herbicidal effect rating (Sagittaria pygmaea, L.; [7]) | SAGPY herbicidal effect rating (Sagittaria pygmaea, L.; [8]) | ORYSAT herbicidal effect rating [4, 10] | ORYSAT herbicidal effect rating [4, 11] | ORYSAT herbicidal effect rating [4, 12] | ORYSAT herbicidal effect rating [4, 13]
2.0: CYPSE herbicidal effect rating [2, 7]
9.0: CYPIR herbicidal effect rating (Cyperus iria; [6]) | CYPIR herbicidal effect rating (Cyperus iria; [7]) | CYPIR herbicidal effect rating (Cyperus iria; [8]) | CYPSE herbicidal effect rating [2, 8] | MOOVA herbicidal effect rating [3, 6] | MOOVA herbicidal effect rating [3, 7] | MOOVA herbicidal effect rating [3, 8]
4.0: CYPIR herbicidal effect rating (Cyperus iria; [5]) | MOOVA herbicidal effect rating [3, 5]

Cn1c(C(F)(F)F)cc(=O)n(-c2ccc3snc(C(C)(C)C#N)c3c2)c1=O [Example 256, 1,2-Benzisothiazole-3-acetonitrile, 5-[3,6-dihydro-3-methyl-2,6-dioxo-4-(trifluoromethyl)-1(2H)-pyrimidinyl)-alpha,alpha-dimethyl-]
4.0: SAGPY herbicidal effect rating (Sagittaria pygmaea, L.; [7])
8.0: CYPIR herbicidal effect rating (Cyperus iria; [5]) | MOOVA herbicidal effect rating [3, 5] | SAGPY herbicidal effect rating (Sagittaria pygmaea, L.; [8]) | ORYSAT herbicidal effect rating [4, 11] | ORYSAT herbicidal effect rating [4, 12]
2.0: CYPSE herbicidal effect rating [2, 6]
0.0: CYPSE herbicidal effect rating [2, 5] | SAGPY herbicidal effect rating (Sagittaria pygmaea, L.; [5]) | SAGPY herbicidal effect rating (Sagittaria pygmaea, L.; [6])
9.0: ECHORC herbicidal effect rating [1, 8] | CYPIR herbicidal effect rating (Cyperus iria; [6]) | CYPIR herbicidal effect rating (Cyperus iria; [7]) | CYPIR herbicidal effect rating (Cyperus iria; [8]) | CYPSE herbicidal effect rating [2, 8] | MOOVA herbicidal effect rating [3, 6] | MOOVA herbicidal effect rating [3, 7] | MOOVA herbicidal effect rating [3, 8] | ORYSAT herbicidal effect rating [4, 13]
3.0: ECHORC herbicidal effect rating [1, 6]
6.0: CYPSE herbicidal effect rating [2, 7] | ORYSAT herbicidal effect rating [4, 10]
1.0: ECHORC herbicidal effect rating [1, 5]
7.0: ECHORC herbicidal effect rating [1, 7]

COC(=O)CN(Cc1nsc2ccc(-n3c(=O)cc(C(F)(F)F)n(C)c3=O)cc12)S(C)(=O)=O [Example 306, Glycine, N-{{5-[3,6-dihydro-3-methyl-2,6-dioxo-4-(trifluoromethyl)-1(2H)-pyrimidinyl]-1,2-benzisothiazol-3-yl}methyl}-N-(methylsulfonyl)-, methyl ester]
0.0: herbicidal effect rating, ECHORC [1, 15] | herbicidal effect rating, CYPIR (Cyperus iria; [15]) | herbicidal effect rating, CYPSE [2, 15] | herbicidal effect rating, MOOVA [3, 15] | herbicidal effect rating, SAGPY (Sagittaria pygmaea, L.; [15]) | herbicidal effect rating ORYSAT [4, 13]

CCCS(=O)(=O)NC(=O)COc1ccccc1-c1nsc2ccc(-n3c(=O)cc(C(F)(F)F)n(C)c3=O)cc12 [Example 556, Acetamide, 2-{o-{5-[3,6-dihydro-3-methyl-2,6-dioxo-4-(trifluoromethyl)-1(2H)-pyrimidinyl]-1,2-benzisothiazol-3-yl}phenoxy}-N-(propylsulfonyl)-]
4.0: herbicidal effect rating, SAGPY (Sagittaria pygmaea, L.; [19]) | herbicidal effect rating ORYSAT ([4]; Rate 0.0320 kg/ha, rated 3-4 weeks after treatment)
7.0: herbicidal effect rating, CYPIR (Cyperus iria; [18]) | herbicidal effect rating ORYSAT ([4]; Rate 0.0620 kg/ha, rated 3-4 weeks after treatment)
9.0: herbicidal effect rating, ECHORC [1, 19] | herbicidal effect rating, ECHORC [1, 20] | herbicidal effect rating, CYPIR (Cyperus iria; [19]) | herbicidal effect rating, CYPSE [2, 18] | herbicidal effect rating, CYPSE [2, 19] | herbicidal effect rating, MOOVA [3, 16] | herbicidal effect rating, MOOVA [3, 17] | herbicidal effect rating, MOOVA [3, 18] | herbicidal effect rating, MOOVA [3, 19] | herbicidal effect rating, MOOVA [3, 20] | herbicidal effect rating ORYSAT ([4]; Rate 0.2500 kg/ha, rated 3-4 weeks after treatment)
2.9: herbicidal effect rating, ECHORC [1, 16]
2.0: herbicidal effect rating, CYPIR (Cyperus iria; [17]) | herbicidal effect rating, CYPSE [2, 16] | herbicidal effect rating, CYPSE [2, 17]
8.0: herbicidal effect rating ORYSAT ([4]; Rate 0.1250 kg/ha, rated 3-4 weeks after treatment)
4.4: herbicidal effect rating, ECHORC [1, 18]
5.0: herbicidal effect rating ORYSAT ([4]; Rate 0.5000 kg/ha, rated 3-4 weeks after treatment)
3.6: herbicidal effect rating, ECHORC [1, 17]
3.0: herbicidal effect rating, CYPIR (Cyperus iria; [20]) | herbicidal effect rating, SAGPY (Sagittaria pygmaea, L.; [20])
0.0: herbicidal effect rating, CYPIR (Cyperus iria; [16]) | herbicidal effect rating, CYPSE [2, 20] | herbicidal effect rating, SAGPY (Sagittaria pygmaea, L.; [16]) | herbicidal effect rating, SAGPY (Sagittaria pygmaea, L.; [17])
6.0: herbicidal effect rating, SAGPY (Sagittaria pygmaea, L.; [18])
